“Also recorded” adds a separate entry of the source.
Assays:
[1] = system: 6-Hz seizures; experiment: acute mouse 6-Hz model (FIG. 9); type: in vivo, NMRI mice
Description: FIG. 9 includes two graphs that summarize the effects of racemic fenfluramine (abbreviated herein as “FA,” “FFA” or “FEN”) treatment in 6-Hz mice, as described in Example 2. FIG. 9A is a bar graph showing the percentage of animals protected for mice treated with vehicle, with […], and with 5 mg/kg FA. […] Protection being defined as the absence of a seizure within the expected time frame (i.e. below the minimum seizure duration in VHC treated mice).
Rapid screening of possible anticonvulsants can be performed by using acute (instead of chronic) animal models of drug-resistant seizures. […] In addition to the protocol using 44 mA pulses, more “lenient” versions of the model using 22 mA or 32 mA currents are sometimes employed.

[2] = system: Generalized tonic-clonic seizures; experiment: acute maximal electroshock (MES) test; type: in vivo, male CF-1 mice
Description: (§1) The antiseizure effects of racemic fenfluramine were assessed in three mouse models of acute and chronic seizures in naïve male CF-1 mice (Envigo (Indianapolis, Ind., USA); 18-35 g): 1) the acute maximal electroshock (MES) test; 2) the acute 44 mA 6 Hz test; and 3) the chronic corneal kindled mouse (CKM) model.
(§2) Methods: Testing progressed in three phases: identification, time course, and dose response. In the identification phase, mice were administered FFA (3, 10, 30 mg/kg, ip), vehicle, or retigabine (positive control, 20 or 50 mg/kg, ip) 0.5 or 2 hr before testing (n=4/group). […] Dose-dependent anticonvulsant activity of FFA was assessed by testing between 0.25 and 120 mg/kg (n=8/dose). The effect of FFA on mild motor impairment (MMI) in the fixed-speed rotarod (FSR) was assessed prior to the MES, 44 mA 6 Hz, and CKM tests.

[3] = system: secondarily generalized focal seizures; experiment: acute 44 mA 6 Hz test; type: in vivo, male CF-1 mice
Description: as §1, §2

[4] = system: corneal kindled mouse; experiment: chronic corneal kindled mouse (CKM) model; type: in vivo, male CF-1 mice
Description: as §1, §2

[5] = fixed-speed rotarod, minimal motor impairment (MMI); type: in vivo, male CF-1 mice
Description: as §2

[6] = system: dizocilpine-treated mice; experiment: spontaneous alternation in the Y-maze, dizocilpine-induced amnesia model; type: in vivo, Male Swiss OF-1 mice
[7] = system: dizocilpine-treated mice; experiment: step-through passive avoidance, dizocilpine-induced amnesia model; type: in vivo, Male Swiss OF-1 mice
[8] = system: dizocilpine-treated mice; experiment: dizocilpine-induced learning deficits, statements covering both tests (Y-maze and passive avoidance); type: in vivo, Male Swiss OF-1 mice
Description: Experiments were conducted to determine the dose-response effects of fenfluramine (FEN) and norfenfluramine (NOR), racemate and (+)- and (−)-isomers, in an in vivo mouse model; the dizocilpine-induced amnesia model (described below) is used to test responses to drugs acting at the sigma-1 receptor (S1R) (Maurice et al., 1994a,b; Maurice, et al., 1998, Neuroscience 83:413-428).
The drugs were administered intraperitoneally (“ip” or “IP”) with dizocilpine (0.15 mg/kg) and tested in the spontaneous alternation test on day 1 and in the passive avoidance test on days 2-3.
The apparatus consisted of a 2-compartment box, with one illuminated with white polyvinylchloride (PVC) walls and a transparent cover (15×20×15 cm high), one with black polyvinylchloride walls and cover (15×20×15 cm high), and a grid floor. A guillotine door separated each compartment. A 60 W lamp was positioned 40 cm above the apparatus lit the white compartment during the experimental period. Scrambled foot shocks (0.3 mA for 3 s) were delivered to the grid floor using a shock generator scrambler (Lafayette Instruments, Lafayette, Mass., USA). The guillotine door was initially closed during the training session. Each mouse was placed into the white compartment. After 5 s, the door was raised. When the mouse entered the darkened compartment and placed all its paws on the grid floor, the door was gently closed and the 3-scrambled foot shock was delivered for 3 s. The step-through latency, i.e., the latency spent to enter the dark compartment, and the level of sensitivity to the shock were recorded. The latter was evaluated as: 0=no sign; 1=flinching reactions; 2=flinching and vocalization reactions. The retention test was carried out 24 h after training. Each mouse was placed again into the white compartment. After 5 s, the door was raised. The step-through latency was recorded up to 300 s. Animals entered the darkened compartment or were gently pushed into it and the escape latency, i.e., the time spent to return into the white compartment, was also measured up to 300 s. Results were expressed as median and interquartile (25%-75%) range.
The Y-maze is made of grey PVC. Each arm is 40 cm long, 13 cm high, 3 cm wide at the bottom, 10 cm wide at the top, and converged at an equal angle. Each mouse was placed at the end of one arm and allowed to move freely through the maze during an 8-min session. The series of arm entries, including possible returns into the same arm, were checked visually. An alternation was defined as entries into all three arms on consecutive occasions. The number of maximum alternations was therefore the total number of arm entries minus two and the percentage of alternation was calculated as: actual alternations/maximum alternations)×100. Parameters included the percentage of alternation (memory index) and total number of arm entries (exploration index).

[9] = system: homozygous scn1Lab−/− mutants; experiment: zebrafish locomotor assay (total distance in large movements, lardist); type: in vivo, zebrafish (Danio rerio); settings: scn1Lab−/− mutants, fixed concentration, FIG. 3
Description: (Baraban et al, 2013). Additional phenotypes of these mutants include: abnormal optokinetic response (OKR; 5 dpf); darkened pigmentation; death by 14 dpf; spontaneous seizure-like activity; abnormal (forebrain electrographic activity (3-7 dpf); seizure activity; lower levels of serotonin in scn1lab^−/− head homogenates at 7 dpf; zebrafish express orthologs of human serotonin (5HT) receptor subtypes at 5 dpf; nighttime hyperactivity (5 dpf); in open field-increased thigmotaxis. decreased movement (at 5 dpf); no differences in GABAergic neurons compared to wild type (5 dpf); 5-HT2a (hitr2aa/b) and S-HT2c; (htr2c11) orthologs expressed in larval heads in wild-type and scn1lab−/− mutants and in adult wild-type brains.
To assay the locomotor activity of homozygous scn1Lab−/− mutants and control WT scn1Lab+/+, zebrafish larvae were placed one larva per well in a 96-well plate in 100 μL of embryo medium from 4 to 8 days post-fertilization (dpf). Each day the larvae are tracked in an automated tracking device (ZebraBox™ apparatus; Viewpoint, Lyon, France) for 10 min after 30 min habituation (100-second integration interval). All recordings were performed at the same time during daytime period. The total distance in large movements was recorded and quantified using ZebraLab™ software (Viewpoint, Lyon, France). Data was pooled together from at least three independent experiments with at least 24 larvae per condition.
Scn1Lab^−/− mutants and WT scn1Lab+/+ larvae are arrayed in the same plate and treated at 6 days post fertilization (dpf) with the test compounds (25 μM), or VHC in individual wells of a 96-well plate. After incubation at 28° C. on a 14/10 hour light/dark cycle and 30-min chamber habituation 6 and 7 dpf larvae are tracked for locomotor activity for 10 min (100-second integration interval) under dark conditions. An incubation time of 1.5 hours is further referred to as short treatment (6 dpf). Furthermore, these larvae are analyzed after more than 22 hours incubation (7 dpf), i.e. long treatment. The total locomotor activity is quantified using the parameter lardist and plotted in cm. Data for each compound is pooled together from multiple independent experiments with at least 9 larvae per treatment condition.

[10] = system: homozygous scn1Lab−/− mutants; experiment: epileptiform activity, open-field recordings in larval forebrain (LFP assay); type: in vivo, zebrafish (Danio rerio)
[11] = system: WT scn1Lab+/+ zebrafish larvae; experiment: maximal tolerated concentration (MTC); type: in vivo, zebrafish (Danio rerio); settings: no signs of toxicity in 12 out of 12 larvae within 48 hours of exposure
Description: To evaluate the maximal tolerated concentration (MTC) of each compound, 6 dpf-old WT scn1Lab+^+/+ zebrafish larvae were incubated in a 96-well plate (tissue culture plate, flat bottom, FALCON®, USA) with different concentrations of compound or VHC at 28° C. on a 14/10 hour light/dark cycle under standard aquaculture conditions (medium is replenished daily). Each larva was individually checked under the microscope during a period of 48 hours for the following signs of toxicity: decreased or no touch response upon a light touch of the tail, loss of posture, body deformation, edema, changes in heart rate or circulation and death. […] MTC was determined as 100 micromolar (μM) for (+)-fenfluramine and both norfenfluramine enantiomers. A MTC of 50 μM was determined for (−)-fenfluramine.

[12] = in vivo; cited from earlier work

With CCNC(C)Cc1cccc(C(F)(F)F)c1 (racemic) [Fenfluramine, (RS)—N-ethyl-1-[3-(trifluoromethyl)phenyl]propan-2-amine] the “number of mice having seizures and duration of seizures” value ([1]; 20 and 5 mg/kg (FIG. 9)) was “dose-dependent decrease”, the “seizures in the mouse 6-Hz model” value ([1]; Mann-Whitney p<0.05 vs. VHC) was “significantly reduced seizures” and the “period of post-seizure aggression” value ([1]; vehicle mice displayed it) was “did not”. It also gave a protection ([2]; 0.5 hours, 3 mg/kg ip) of 0%, a protection ([2]; 0.5 hours, 10 mg/kg ip) of 0% and a protection ([2]; 0.5 hours, 30 mg/kg ip) of 100%. The protection ([2]; 2.0 hours, 3 mg/kg ip) was 75%, the protection ([2]; 2.0 hours, 10 mg/kg ip) was 50% and the protection ([2]; 2.0 hours, 30 mg/kg ip) was 100%. The “protection, time course at last time point” value ([2]; 4 hours post dosing) was 100% protection at 4 hours post dosing, the ED50 ([2]; Mus musculus, MES, Probit regression, 95% CI 1.4 to 5.1 mg/kg) was 2.9 mg/kg and the “anticonvulsant effect in the MES model” value ([2]; acute administration) was “substantial anticonvulsant effect”. The protection ([3]; 4 hours) was “no protection”, the ED50 ([3]; Mus musculus, 6 Hz 44 mA, 95% CI 31.9 to 66.7 mg/kg) was 47 mg/kg and the “activity in a model of focal seizures that secondarily generalize” value ([3]; mouse, in vivo) was “some activity”. The mice died ([4]; 90 mg/kg) was 2 of 8, the mice died ([4]; 120 mg/kg) was 6 of 8 and the anticonvulsant activity ([4]; all doses tested) was “Minimal anticonvulsant activity at all doses tested”. The Impairment ([5]; 6 Hz 44 mA section, 30 mg/kg at 0.25, 0.50, 1.00 and 2.00 hours) was “Some impairment found at a dose of 30 mg/kg at timepoints of 0.25, 0.50, 1.00, and”, the Impairment ([5]; 6 Hz 44 mA section, 4 hours) was “no impairment” and the Impairment ([5]; at doses used in the MES model) was “No impairment on rotarod at doses used in this model”. The TD50 ([5]; male, CF-1, mouse, in vivo, intraperitoneal, reported under 6 Hz 44 mA, 95% CI 25.3 to 53.0) was 34.6 mg/kg, the “PP (%)” value ([6]; Table 2 Y-Maze, drug alone 0.1 mg/kg IP) was 1.3 ± 7.9% and the “PP (%)” value ([6]; Table 2 Y-Maze, drug alone 0.3 mg/kg IP) was 37.9 ± 9.4%. The “PP (%)” value ([6]; Table 2 Y-Maze, drug alone 1 mg/kg IP) was 59.8 ± 6.1 ^2%, the “PP (%)” value ([6]; Table 5 YMT, drug alone 0.1 mg/kg ip) was 4.4 ± 7.7% and the “PP (%)” value ([6]; Table 5 YMT, drug alone 0.3 mg/kg ip) was 33.6 ± 5.7^2%. The “PP (%)” value ([6]; Table 6 YMT, drug alone 0.1 mg/kg ip) was -9.81 ± 7.6^ %, the “PP (%)” value ([6]; Table 6 YMT, drug alone 0.3 mg/kg ip) was 26.6 ± 9.8 ^2% and the “PP (%)” value ([7]; Table 2 StepThrough/Passive Avoidance, drug alone 0.1 mg/kg IP) was 11.0 ± 11.6%. For the same molecule, the “PP (%)” value ([7]; Table 2 StepThrough/Passive Avoidance, drug alone 0.3 mg/kg IP) was 55.7 ± 10.5%, the “PP (%)” value ([7]; Table 2 StepThrough/Passive Avoidance, drug alone 1 mg/kg IP) was 40.8 ± 13.0 ^4% and the “PP (%)” value ([7]; Table 5 STPA, drug alone 0.1 mg/kg ip) was 11.2 + 12.0%. The “PP (%)” value ([7]; Table 5 STPA, drug alone 0.3 mg/kg ip) was 65.5 ± 12.1^5%, the “PP (%)” value ([7]; Table 6 STPA, drug alone 0.1 mg/kg ip) was 16.8 ± 14.2% and the “PP (%)” value ([7]; Table 6 STPA, drug alone 0.3 mg/kg ip) was 60.1 ± 13.9 ^5%. The “behavior in vivo at S1R” value ([8]; mouse, in vivo) was “behaved in vivo as S1R positive modulators”.
For CCN[C@H](C)Cc1cccc(C(F)(F)F)c1 [(−)-Fenfluramine, (2R)-N-ethyl-1-[3-(trifluoromethyl)phenyl]propan-2-amine], the “reduction in seizure behavior” value [9] was 41%, the “anti-epileptiform activity (frequency and cumulative duration of epileptiform events over 10 minutes)” value ([10]; 50 micromolar, FIGS. 4 and 5) was “comparable” and the “LFP Assay” value ([10]; Table 1, 25, 59 and 100 μM, oral via embryo medium) was “Also reduces spikes but less; also recorded: Normal dose-response; higher”. For the same molecule, the “maximum tolerated concentration (MTC)” value [11] was 50 µM, the “PP (%)” value ([6]; Table 4 Y Maze, drug alone 0.3 mg/kg IP) was 3.2 ± 8.1% and the “PP (%)” value ([6]; Table 4 Y Maze, drug alone 1 mg/kg IP) was 13.8 ± 10.5 ^2%. The “PP (%)” value ([7]; Table 4 StepThrough/PassiveAvoidance, drug alone 0.3 mg/kg IP) was 3.9 ± 8.4%, the “PP (%)” value ([7]; Table 4 StepThrough/PassiveAvoidance, drug alone 1 mg/kg IP) was 7.3 ± 13.8 ^4% and the “effect on PRE-084 efficacy” value ([8]; 1 mg/kg on effective doses of PRE-084 (0.3-1 mg/kg), FIG. 10 (e, f)) was “without effect on PRE-084 efficacy”. The “effect on PRE-084 efficacy” value ([8]; combined with PRE-084 in dizocilpine-treated mice) was “without any effect on PRE-084 efficacy”, the “behavior as S1R antagonist” value ([8]; mouse, in vivo) was “does not behave as a S1R antagonist” and the mean elimination half-life [12] was 25 h.
